Experimental data reported in PMC10254444, “Targeting Myeloperoxidase Activity and Neutrophil ROS Production to Modulate Redox Process: Effect of Ellagic Acid and Analogues” (Molecules, 2023).

Assays:
[1] = target: T1, Horseradish peroxidase (HRP) (Armoracia rusticana, UniProt P00433); experiment: HRP-catalyzed oxidation of L012 (chemiluminescence); format: biochemical
T1 construct: purchased Merck (Darmstadt, Germany)
T1 sequence (P00433 31-338 limits assumed): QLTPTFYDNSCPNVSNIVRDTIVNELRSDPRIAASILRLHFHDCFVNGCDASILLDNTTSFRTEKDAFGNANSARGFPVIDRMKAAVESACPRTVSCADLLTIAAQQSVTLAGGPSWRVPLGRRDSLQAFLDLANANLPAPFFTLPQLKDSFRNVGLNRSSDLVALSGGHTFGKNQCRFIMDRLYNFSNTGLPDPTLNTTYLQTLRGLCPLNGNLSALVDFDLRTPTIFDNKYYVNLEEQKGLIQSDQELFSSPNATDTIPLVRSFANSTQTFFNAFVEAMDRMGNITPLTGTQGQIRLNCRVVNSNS
Experimental: […] (HRP) reacts with hydrogen peroxide (H2O2), yielding “compound I (HRP^+.-Fe (IV=O))”, which is a reactive intermediate of HRP that is able to oxidize any potential reducing agent. Briefly, 2 μL of compound or reference molecule (ellagic acid) were incubated in phosphate buffer at pH 7.4 (153 μL, 50 mM) containing 5 μL HRP (100 µg/L), 20 μL L0-12 (10^−3 M), and 20 μL H2O2 (1 mM), and the chemiluminescence was immediately measured using a Fluoroskan Ascent 96-plate reader (ThermoLabsystem, Finland) at 37 °C for 30 min [32, 34]. The analysis was conducted in a 96-well microtiter plate. All the assays were performed in triplicate and repeated at least twice (N = 2; n = 6). The relative activity in terms of inhibition percentage of the tested compound or reference (ellagic acid) was compared to a control in the presence of DMSO taken as a solvent. The inhibition percentage was calculated using a similar formula (Equation (1)) as described above.

[2] = DPPH radical scavenging assay
Experimental: The DPPH assay was performed according to the method developed by Brand-Williams et al., though slightly modified. A solution of 1 mM DPPH in absolute methanol was stirred for 40 min. Absorbance of the solution was adjusted to 0.650 ± 0.020 at 517 nm using fresh absolute methanol. For replicates, the DPPH assay was performed using a microplate reader. For this, 2 µL of EA taken as a standard or sample (EA analogue) were mixed with 198 µL of DPPH solution and incubated for 30 min in the dark covered with aluminum foil. When reacting with an antioxidant, the DPPH• radical is converted into DPPH, and its color changes from purple to yellow. The antioxidant effect may be easily evaluated by observing the decrease in visible absorption. The absorbance decrease was monitored at 510 nm for 30 min with a Multiskan Ascent 96-plate reader (ThermoLabsystem, Finland). A control consisted of 2 µL of DMSO in 198 µL of DPPH solution. A similar formula (Equation (1)) was applied to determine the DPPH radical-scavenging activity.

[3] = ABTS radical cation assay
Experimental: The ABTS assay was based on the method described by Re et al.. For the generation of ABTS^•+ radicals, sodium persulfate (2.45 mM) aqueous solution was mixed with ABTS (7 mM) and incubated overnight in the dark to obtain a dark-colored solution. Stock solution of ABTS^•+ was then diluted by adding pure methanol (100%) to obtain an absorbance of 0.70 (±0.02) at 734 nm at 30 °C. To obtain more repetition, the ABTS assay was performed using a microplate reader (ThermoLabsystem, Finland). An aliquot of 2 µL of the tested compound (EA or analogue) was added to 198 µL of ABTS^•+, and the decrease in absorbance was monitored at 740 nm after 30 min [32]. During this reaction, the blue-green ABTS radical cation is converted back into its colorless neutral form in the presence of the potential antioxidant molecule. A control consisted of 2 µL of DMSO in 198 µL of ABTS^•+ solution. The reducing capacity was determined according to the formula:% inhibition = (Acontrol − ASample) × 100/AControl(1)

[4] = test system: PMA-activated neutrophils; experiment: ROS production by PMA-activated neutrophils (L012 chemiluminescence); format: cell-based, equine
Experimental: Equine neutrophils were isolated from whole blood using EDTA disodium salt (1.6 mg/mL) as an anticoagulant. The blood was drawn from the jugular vein of healthy horses bred and fed under identical conditions without medical treatment. All the experiments were realized with the approval of the ethics committee of the Faculty of Veterinary Medicine of the University of Liege (agreement number 1474). Briefly, the neutrophils were isolated at room temperature (18–22 °C) by centrifugation (400× g; 45 min; 20 °C) on a discontinuous Percoll density gradient according to the method previously described. The cells were gently collected and washed with two volumes of physiological saline solution. After the supernatant removal, the cell pellets were re-suspended in 2 mL PBS and counted for further use.
The ROS produced by PMA-activated neutrophils were measured by L012-enhanced chemiluminescence (CL) under an adaptation of the method previously described by Benbarek et al. and Derochette et al.. Neutrophil suspensions were distributed in the wells (neutrophils/well, 143 μL PBS) of a 96-well microtiter plate (White Combiplate 8, Fisher Scientific) and incubated for 10 min at 37 °C with 2 μL of EA or analogue to reach final concentrations of 10^−8 M, 10^−7 M, 10^−6 M, and 10^−5 M. After incubation, 25 μL CaCl2 (10 mM) and 20 μL L-012 (10^−4 M) were added into the wells (final volume of 200 μL). […] A control was performed with neutrophils activated with PMA (positive Ctrl) in the presence of PBS instead of ellagic acid analogue. Another control was performed with PMA-activated neutrophils in the presence of the vehicle solution of ellagic acid or analogue (1% DMSO) (DMSO, final concentration) and was taken as 100% CL response. The negative control was performed with unstimulated neutrophils (NA) with the CL probe alone. The inhibition percentage was calculated using a similar formula (Equation (1)) as described above.

Row | Compound | HRP inhibiting activity (in words) [1] | DPPH inhibition percentage ([2]; at the highest concentration) | ABTS activity (in words) [3] | Inhibition of neutrophil ROS production (in words) [4] | Inhibition of neutrophil ROS production ([4]; highest concentration) | IC50 [1] | IC50 [2] | IC50 [3]
1 | CN(C)C(=O)Oc1cc2c(=O)oc3c(OC(=O)N(C)C)c(OC(=O)N(C)C)cc4c(=O)oc(c1OC(=O)N(C)C)c2c34 [compound 6, Sevellagic acid] | lack of effect | −3% | no significant activity | less active than all the other tested compounds | 58% | – | – | –
2 | CCOC1Oc2cc(C(=O)OC)cc(O)c2O1 (stereo not drawn) [compound 11, methyl 2-ethoxy-7-hydroxybenzo[d][1,3]dioxole-5-carboxylate] | – | – | – | good inhibitory effect | – | 3.55 ± 0.37 µM | 5.22 ± 0.05 µM | 6.56 ± 0.37 µM
